Test [1] deals with human leukemia cell line MV4-11. The experiment in a line: In vitro tumor cell proliferation inhibition (MTT): MV4-11. It is filed as cell-based. An excerpt:
(§1) The purpose of the experiment was to test the inhibition activity of the compounds of the invention for in vitro human tumor cell proliferation by the methyl thiazolyl tetrazolium (MTT) colorimetry.
(§2) Main reagents: RPMI-1640, fetal bovine serum, pancreatin, etc. were purchased from Gibco BRL Company (Invitrogen Corporation, USA) and IMDM medium that was purchased from American Type Culture Collection (ATCC). Methyl thiazolyl tetrazolium (MTT) and dimethyl sulfoxide (DMSO) were products from Sigma Company (USA). Pyrazolopyrimidine derivatives were composed by the inventor. During in vitro experiment, 100% DMSO was prepared into 10 mM storage solution, the solution was stored in a refrigerator at −20° C. for future use, and was diluted to the required concentration with complete culture solution before use.
(§3) Cell line and culture: Human leukemia cell line MV4-11, Jurkat, K562, human thyrophyma cell line TT, human gastric carcinoma cell line MKN-45, human malignant melanoma cell lines A375 and A875, human pancreatic carcinoma cell line panc-1, human cervical carcinoma cell line HELA, human colorectal carcinoma cell line HCT116, etc. were purchased from American type culture collection and were preserved by this laboratory. All leukemia cell lines (except MV4-11), gastric carcinoma cell lines and thyrophyma cell lines were cultured in RPMI-1640 complete medium containing 10% fetal bovine serum, 100 U/mL penicillin and 100 μg/mL streptomycin at 37° C. in 5% CO2. The remaining cell lines were cultured in DMEM complete medium containing 10% fetal bovine serum (containing 20% MV4-11 cell), 100 U/mL penicillin and 100 µg/mL streptomycin at 37° C. in 5% CO2.
(§4) Cell suspension with cell concentration of 1-2×10^4/mL was adjusted with the complete cell medium and inoculated in a 96-well plate, with each well filled with 200 μl cell suspension that was cultured overnight. On the next day, supernatant was sucked and abandoned (supernatant was sucked upon centrifugation of suspension cells), and then cells were processed with test compounds at gradient concentrations respectively. Meanwhile, a negative control group free from drug and a solvent control group with equal volume were set, and the DMSO concentration was 0.1%. Each dose group was provided with three wells and cultured at 37° C. in 5% CO2. After 72 hours, 20 μl 5 mg/mL MTT reagent was added to each well, and cultured for another 2 to 4 hours, the supernatant was abandoned; 150 μL DMSO was added to each well again, vibrated and mixed evenly for 15 minutes; the absorbance (A) values (proportional to living cell amount) were determined with a microplate reader (λ=570 nm) and averaged. […] Experiment was repeated for 3 times at least. Experimental data were expressed with means, data statistics were tested by t, and P<0.05 means that difference has a statistical significance. The cell proliferation inhibition effects of all compounds as follows are expressed by IC50 or inhibition rate.

Test [2] has as its system human colorectal carcinoma cell line HCT116. Put plainly: In vitro tumor cell proliferation inhibition (MTT): HCT116. The format is cell-based.
From the text: as §1, §2, §3, §4

For test [3], the system named is human gastric carcinoma cell line MKN-45. The experiment in a line: In vitro tumor cell proliferation inhibition (MTT): MKN-45. The format is cell-based.
From the text: as §1, §2, §3, §4

Another test has as its target FGFR2 (Homo sapiens, UniProt P21802). The experiment in a line: Kinase inhibition activity test, isotope labeling: FGFR2. The format is biochemical. To be noted: for Activity inhibition rate FGFR2 (h) / inhibition at 10 µM: test compound at a concentration of 10 μM; for inhibition at 10 µM: read-out: Activity inhibition rate FGFR2 (h). The protocol: The purpose of this experiment was to test the inhibitory activity of the compound of the invention for in vitro kinase with the isotope labeling method (the γ phosphate group on ATP was labeled). In this experiment, the in vitro activity inhibition of such kinases as FLT3, VEGFR2, FLT1, FLT4, RET, c-RAF, B-RAF, c-KIT, PDGFα, PDGFβ, FGFR2, FGFR1, EphA2, EphB2, SRC, ABL, ALK and Met was tested respectively. Staurosporine was reference molecule (or referred to as positive control). The kinase inhibition activity of the test compound was expressed by half-inhibitory concentration (IC50) or the kinase activity inhibition rate of the test compound at a concentration of 10 μM. The IC50 value could be obtained by calculating the kinase activity inhibition rate of the test compound at different concentrations.
20 mM 3-(N-morpholinyl)propanesulfonic acid (MOPS); 1 mM ethylenediaminetetraacetic acid (EDTA), 0.01% Brij 35 (Brij-35), 5% glycerol, 0.1% mercaptoethanol, 1 mg/mL bovine serum albumin (BSA), 10 mM manganous dichloride solution (MnCl2), 0.1 mg/mL glutamic acid/tyrosine (4:1) polypeptide (poly(Glu, Tyr)4:1), 50 μM EAIYAAPFAKKK (substrate of FLT3), 0.33 mg/mL myelin basic protein (substrate of VEGFR2), 250 μM KKKSPGEYVNIEFG (substrate of FLT1(h)), 500 μM GGEEEEYFELVKKKK (substrate of FLT4(h)), 250 μM KKKSPGEYVNIEFG (substrate of RET), 0.66 mg/mL myelin basic protein (substrate of C-RAF), 250 μM GGMEDIYFEFMGGKKK (substrate of c-Kit), 250 μM GGMEDIYFEFMGGKKK (substrate of PDGFα), 250 μM KKKSPGEYVNIEFG (substrate of FGFR1), […] GGEEEEYFELVKKKK (substrate of SRC), 50 μM EAIYAAPFAKKK (substrate of ABL), 250 μM KKKSPGEYVNIEFG (substrate of ALK), 250 μM KKKSPGEYVNIEFG (substrate of Met(h)), 10 mM magnesium acetate and γ-^33 P-ATP solution, stop buffer (3% phosphate buffer), washing buffer (75 mM phosphate solution), methanol, Filtermat A membrane, FLT3, VEGFR2, FLT3, VEGFR2, FLT1, FLT4, RET, c-RAF, B-RAF, c-KIT, PDGFRα, PDGFRβ, FGFR2, FGFR1, EphA2, EphB2, SRC, ABL, ALK, Met and other kinases, and the test compounds.
Buffers (8 mM MOPS with pH value of 7.0, 0.2 mM EDTA and 10 mM MnCl2), (5-10 mU) kinases to be tested (FLT3, VEGFR2, FLT1, FLT4, RET, c-RAF, B-RAF, c-KIT, PDGFRα, PDGFRβ, FGFR2, FGFR1, EphA2, EphB2, SRC, ABL, ALK and Met), substrates of kinases to be tested (refer to experimental materials), 10 mM magnesium acetate and γ-^33 P-ATP solution, and test compounds at different concentrations were added to a reaction tube orderly. […] Reaction was terminated with 5 μL 3% phosphate buffer finally, and 10 μL reaction solution was titrated to the Filtermat A membrane; solution was washed for 3 times with 75 mM phosphate solution with each time lasting 5 minutes, and then washed once with methanol. Finally, the Filtermat A membrane was dried, and scintillation counting was performed on the membrane, with scintillation count reflecting the phosphorylation degree of the substrates, so that the activity inhibition of kinase could be characterized.

Test [4] concerns human cervical carcinoma cell line HELA. The experiment in a line: In vitro tumor cell proliferation inhibition (MTT): HELA. To be noted: 72 hours. The format is cell-based.
From the text: as §1, §2, §3, §4

Test [5] relates to human pancreatic carcinoma cell line panc-1. Put plainly: In vitro tumor cell proliferation inhibition (MTT): panc-1. The format is cell-based.
From the text: as §1, §2, §3, §4

For test [6], the system named is human leukemia cell line Jurkat. Put plainly: In vitro tumor cell proliferation inhibition (MTT): Jurkat. The format is cell-based. Conditions: 72 hours.
From the text: as §1, §2, §3, §4

Setting [7] is: 72 hours, read-out: Proliferation inhibition activity (IC50) HCT 116.
The mark [8] stands for this setting: Homo sapiens, HCT-116, 72 hours.

Like-named read-outs stand apart in the source and are kept apart here.

Consider 13 compounds from patent publication US9828375B2, “4-position substituted pyrazolopyrimidine derivative, and use thereof in drug preparation” (Guangxi Wuzhou Pharmaceuticals (Group) Co., Ltd., priority 2012, dated 2017).

FGFR2, sequence (P21802 22-821): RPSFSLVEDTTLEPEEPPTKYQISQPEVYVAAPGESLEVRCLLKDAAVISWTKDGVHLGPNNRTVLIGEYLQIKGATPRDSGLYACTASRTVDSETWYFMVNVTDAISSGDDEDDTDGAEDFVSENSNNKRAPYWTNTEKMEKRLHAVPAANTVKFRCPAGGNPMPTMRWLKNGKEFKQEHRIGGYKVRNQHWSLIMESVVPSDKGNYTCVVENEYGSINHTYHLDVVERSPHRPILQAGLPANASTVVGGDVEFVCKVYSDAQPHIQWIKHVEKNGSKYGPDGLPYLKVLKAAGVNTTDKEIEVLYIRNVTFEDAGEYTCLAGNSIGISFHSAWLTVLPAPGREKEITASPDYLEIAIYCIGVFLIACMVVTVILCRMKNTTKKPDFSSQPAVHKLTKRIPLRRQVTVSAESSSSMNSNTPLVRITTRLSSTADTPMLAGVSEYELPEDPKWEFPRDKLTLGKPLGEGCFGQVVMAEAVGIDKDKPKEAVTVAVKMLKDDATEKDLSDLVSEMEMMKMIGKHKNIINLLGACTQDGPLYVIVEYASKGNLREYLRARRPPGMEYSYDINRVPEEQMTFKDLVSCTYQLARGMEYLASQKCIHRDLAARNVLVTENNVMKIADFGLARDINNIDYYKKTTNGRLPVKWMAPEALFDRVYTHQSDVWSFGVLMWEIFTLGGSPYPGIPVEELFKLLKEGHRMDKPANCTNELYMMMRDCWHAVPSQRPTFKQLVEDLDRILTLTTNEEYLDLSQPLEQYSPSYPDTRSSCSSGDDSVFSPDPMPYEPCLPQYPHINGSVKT

Turning to “1-(4-((1H-pyrazolopyrimidine-4-yl)oxy)-3-fluorophenyl)-3-(3-trifluoromethoxy)phenyl)urea [4a-8]”, the IC50 in test [1] (72 hours) was 0.053 µM; in test [2] (setting [7]), 5.7 µM; in test [3] (72 hours), 7.65 µM; in test [4] it was 8.49 µM; in test [5] (72 hours) it was 4.65 µM; in test [6], under 50 µM. In addition, the “Activity inhibition rate FGFR2 (h)” value at FGFR2 was determined as 6%.

For “1-(4-((1H-pyrazolopyrimidine-4-yl)oxy)phenyl)-3-(methylcyclohexyl)urea [4a-20]”, the IC50 in test [1] (72 hours) was 0.363 µM; in test [2] (setting [7]) it was under 50 µM; in test [3] (72 hours), under 50 µM; in test [4] it was under 50 µM; in test [5] (72 hours), under 50 µM; in test [6], under 50 µM. For the same compound, the “Activity inhibition rate FGFR2 (h)” value at FGFR2 is listed as 19%.

One may read the inhibition as the change of the read-out against control, counted positive when it falls. For the compound `O=C(Nc1ccc(Oc2ncnc3[nH]ncc23)cc1)Nc1ccc(C(F)(F)F)cc1` [4a-1], the IC50 is 0.005 µM in test [1] (Homo sapiens, MV4-11, 72 h); under 50 µM in test [2] (setting [8]); under 50 µM in test [3] (Homo sapiens, MKN-45, 72 hours); under 50 µM in test [4] (Homo sapiens, HeLa); under 50 µM in test [5] (Homo sapiens, PANC-1, 72 hours); under 50 µM in test [6] (Homo sapiens, Jurkat). At FGFR2, the inhibition at 10 µM amounted to 22%.

Turning to `O=C(Nc1ccc(Oc2ncnc3[nH]ncc23)cc1)Nc1ccc(N2CCOCC2)cc1` [4a-16, 1-(4-((1H-pyrazolopyrimidine-4-yl)oxy)phenyl)-3-(4-morpholinylphenyl)urea], the IC50 in test [1] (Homo sapiens, MV4-11, 72 h) was 0.089 µM; in test [2] (setting [8]), under 50 µM; in test [3] (Homo sapiens, MKN-45, 72 hours) it was 3.22 µM; in test [4] (Homo sapiens, HeLa), under 50 µM; in test [5] (Homo sapiens, PANC-1, 72 hours), under 50 µM; in test [6] (Homo sapiens, Jurkat) it was under 50 µM.

For `C[C@@H](NC(=O)Nc1ccc(Oc2ncnc3[nH]ncc23)cc1)c1ccccc1` [4a-19, (R)-1-(4-((1H-pyrazolopyrimidine-4-yl)oxy)phenyl)-3-(1-phenethyl)urea], the IC50 is 0.124 µM in test [1] (72 hours); under 50 µM in test [2] (setting [7]); under 50 µM in test [3] (72 hours); under 50 µM in test [4]; under 50 µM in test [5] (72 hours). The “Activity inhibition rate FGFR2 (h)” value on FGFR2 is reported as 17%.

Take `CC(C)(C)c1cc(NC(=O)Nc2ccc(Oc3ncnc4[nH]ncc34)cc2)n(-c2ccccc2)n1` [4a-24]: the IC50 in test [1] (72 hours) was 0.0004 µM; in test [2] (setting [7]), 6.75 µM; in test [3] (72 hours), 2.84 µM; in test [4], 5.51 µM; in test [5] (72 hours), under 50 µM. Further, the “Activity inhibition rate FGFR2 (h)” value at FGFR2 is reported as over 50%.

For `CC(C)(C)c1cc(NC(=O)Nc2ccc(Oc3ncnc4[nH]ncc34)c(F)c2)no1` [4a-31], the IC50 in test [1] (72 hours) is 0.0004 µM; in test [3] (72 hours), under 50 µM; at FGFR2 (ATP 90 μM, read-out: FGFR2 IC50 value (inhibitory activity value)), under 10 µM; in test [4] it was 3 to 10 µM; in test [5] (72 hours) it was 3 to 10 µM; in test [6], 6.1 µM. In addition, the “Activity inhibition rate FGFR2 (h)” value on FGFR2 was over 50%.

As for `O=C(Nc1ccc(NC(=O)N2C=NC=C3NNC=C32)cc1)Nc1ccc(Cl)c(C(F)(F)F)c1` [4b-5, 1-(4-(1H-pyrazolopyrimidine-4-amido)phenyl)-3-(4-chloro-3-(trifluoromethyl)phenyl)urea], the IC50 in test [1] (Homo sapiens, MV4-11, 72 h) came out at 0.05 µM; in test [3] (Homo sapiens, MKN-45, 72 hours), 7.64 µM. For the same compound, on FGFR2, the inhibition at 10 µM came out at 52%.

For the compound `COc1ccc(NC(=O)Nc2ccc(NC(=O)N3C=NC=C4NNC=C43)cc2)cc1` [4b-6, 1-(4-(1H-pyrazolopyrimidine-4-amido)phenyl)-3-(4-methoxyphenyl)urea], the IC50 in test [1] (Homo sapiens, MV4-11, 72 h) was 0.729 µM; in test [2] (setting [8]), under 50 µM; in test [3] (Homo sapiens, MKN-45, 72 hours), under 50 µM; in test [5] (Homo sapiens, PANC-1, 72 hours), under 50 µM; in test [6] (Homo sapiens, Jurkat), under 50 µM. In addition, the inhibition at 10 µM on FGFR2 amounted to 32%.

For the compound `Cc1cc(C)c(NC(=O)Nc2ccc(NC(=O)N3C=NC=C4NNC=C43)cc2)c(C)c1` [4b-7, 1-(4-(1H-pyrazolopyrimidine-4-amido)phenyl)-3-(2,4,6-trimethylphenyl)urea], the IC50 in test [1] (Homo sapiens, MV4-11, 72 h) is 0.667 µM; in test [2] (setting [8]), under 50 µM; in test [3] (Homo sapiens, MKN-45, 72 hours) it was under 50 µM; in test [5] (Homo sapiens, PANC-1, 72 hours), under 50 µM; in test [6] (Homo sapiens, Jurkat), under 50 µM. Further, the inhibition at 10 µM on FGFR2 stood at 69%.

In the case of `O=C(Nc1ccc(Sc2ncnc3[nH]ncc23)cc1)Nc1ccc(C(F)(F)F)cc1` [4c-1], the IC50 in test [1] (Homo sapiens, MV4-11, 72 h) was 0.012 µM; in test [5] (Homo sapiens, PANC-1, 72 hours), under 50 µM; in test [6] (Homo sapiens, Jurkat), under 50 µM. For the same compound, on FGFR2, the inhibition at 10 µM was over 50%.

As for `O=C(Nc1ccc(Sc2ncnc3[nH]ncc23)cc1)Nc1cccc(C(F)(F)F)c1` [4c-2], the IC50 in test [1] (72 hours) was 0.039 µM; in test [3] (72 hours) it was 8.71 µM; in test [5] (72 hours), under 50 µM; in test [6] it was under 50 µM. The “Activity inhibition rate FGFR2 (h)” value at FGFR2 is over 50%.

On to `CC(C)n1ncc2c(Oc3ccc(NC(=O)Nc4cc(C(C)(C)C)on4)cc3)ncnc21` [5a-4, 1-(5-tert-butylisoxazol-3-yl)-3-(4-(1-isopropyl-(1H-pyrazolopyrimidine-4-yl)oxy)phenyl)urea], for which the IC50 is under 1 µM in test [1] (Homo sapiens, MV4-11, 72 h); under 50 µM in test [2] (setting [8]); under 50 µM in test [3] (Homo sapiens, MKN-45, 72 hours); under 50 µM in test [5] (Homo sapiens, PANC-1, 72 hours); under 50 µM in test [6] (Homo sapiens, Jurkat). Further, on FGFR2, the inhibition at 10 µM is over 30%.
